Source: patent US20160039825A1 (BIOGEN MA INC., priority 2013, published 2016)
pIC50: −log10 of the molar value.

Target: T1, Human ATX protein (Homo sapiens, UniProt Q13822)
T1 construct: made in house
Test: Autotaxin (ATX) assay, FRET with FS-3 substrate
Assay type: biochemical
Conditions: upper bound bins (no greater than 100, 250 or 500 nM); FS-3 2 μM, ATX 1.0 μg/mL
How it was run: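 Hydrolysis of the FRET substrate FS-3 (2 μM final) unquenches fluorescein, read at excitation 485 nm and emission 538 nm after 2 h at room temperature, protected from light. Purified human ATX (1.0 μg/mL) and compound were first incubated for 30 min in pH 7.4 Tris/salt buffer containing 1 mg/mL fatty acid-free BSA.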

Structure (SMILES)	pIC50
O=C(OCc1cc(Cl)cc(Cl)c1)N1CCn2cc(C(F)(F)F)nc2C1 [Example 131, 3,5-Dichlorobenzyl 2-(trifluoromethyl)-5,6-dihydroimidazo[1,2-a]pyrazine-7(8H)-carboxylate]	≥ 6.30
O=C(OCc1cc(C(F)(F)F)cc(C(F)(F)F)c1)N1CCCn2cncc2C1 [Example 132, 3,5-Bis(trifluoromethyl)benzyl 6,7-dihydro-5H-imidazo[1,5-a][1,4]diazepine-8(9H)-carboxylate]	≥ 7.00
O=C(OCc1cc(Cl)cc(Cl)c1)N1CCCn2cncc2C1 [Example 133, 3,5-Dichlorobenzyl 6,7-dihydro-5H-imidazo[1,5-a][1,4]diazepine-8(9H)-carboxylate]	≥ 7.00
O=C(OCc1cc(C(F)(F)F)cc(C(F)(F)F)c1)N1CCn2c(nnc2C(F)(F)F)C1 [Example 134, 3,5-Bis(trifluoromethyl)benzyl 3-(trifluoromethyl)-5,6-dihydro-[1,2,4]triazolo[4,3-a]pyrazine-7(8H)-carboxylate]	≥ 6.30
O=C(OCc1cc(Cl)cc(C(F)(F)F)c1)N1CCn2c(nnc2C(F)(F)F)C1 [Example 135, 3-Chloro-5-(trifluoromethyl)benzyl 3-(trifluoromethyl)-5,6-dihydro-[1,2,4]triazolo[4,3-a]pyrazine-7(8H)-carboxylate]	≥ 6.30
O=C(OCc1cc(C(F)(F)F)cc(C(F)(F)F)c1)N1CCCn2nc(-c3nnn[nH]3)cc2C1 [Example 136, 3,5-Bis(trifluoromethyl)benzyl 2-(1H-tetrazol-5-yl)-7,8-dihydro-4H-pyrazolo[1,5-a][1,4]diazepine-5(6H)-carboxylate]	≥ 7.00
CON(C)C(=O)c1cc2n(n1)CCCN(C(=O)OCc1cc(C(F)(F)F)cc(C(F)(F)F)c1)C2 [Example 144, 3,5-Bis(trifluoromethyl)benzyl 2-(methoxy(methyl)carbamoyl)-7,8-dihydro-4H-pyrazolo[1,5-a][1,4]diazepine-5(6H)-carboxylate]	≥ 7.00
CC(=O)c1cc2n(n1)CCCN(C(=O)OCc1cc(C(F)(F)F)cc(C(F)(F)F)c1)C2 [Example 145, 3,5-Bis(trifluoromethyl)benzyl 2-acetyl-7,8-dihydro-4H-pyrazolo[1,5-a][1,4]diazepine-5(6H)-carboxylate]	≥ 7.00

Further lines, results first:

pIC50	Structure (SMILES)
≥ 6.60	Cc1cc2n(n1)CCCN(C(=O)OCc1cc(F)cc(C(F)(F)F)c1)C2 [Example 128, 3-Fluoro-5-(trifluoromethyl)benzyl 2-methyl-7,8-dihydro-4H-pyrazolo[1,5-a][1,4]diazepine-5(6H)-carboxylate]
≥ 6.30	N#Cc1cc2n(n1)CCCN(C(=O)OCc1cc(F)cc(C(F)(F)F)c1)C2 [Example 129]
≥ 6.30	Cc1cc2n(n1)CCCN(C(=O)OCc1cc(Cl)cc(Cl)c1)C2 [Example 130, 3,5-Dichlorobenzyl 2-methyl-7,8-dihydro-4H-pyrazolo[1,5-a][1,4]diazepine-5(6H)-carboxylate]
≥ 6.30	CCOC(=O)c1cc2n(n1)CCCN(C(=O)OCCc1cc(C(F)(F)F)cc(C(F)(F)F)c1)C2 [Example 141, 5-(3,5-Bis(trifluoromethyl)phenethyl) 2-ethyl 7,8-dihydro-4H-pyrazolo[1,5-a][1,4]diazepine-2,5(6H)-dicarboxylate]
≥ 7.00	CC(O)c1cc2n(n1)CCCN(C(=O)OCc1cc(C(F)(F)F)cc(C(F)(F)F)c1)C2 (centres unmarked) [Example 146, 3,5-Bis(trifluoromethyl)benzyl 2-(1-hydroxyethyl)-7,8-dihydro-4H-pyrazolo[1,5-a][1,4]diazepine-5(6H)-carboxylate]
≥ 6.30	CC(N)c1cc2n(n1)CCCN(C(=O)OCc1cc(C(F)(F)F)cc(C(F)(F)F)c1)C2 (centres unmarked) [Example 147, 3,5-Bis(trifluoromethyl)benzyl 2-(1-aminoethyl)-7,8-dihydro-4H-pyrazolo[1,5-a][1,4]diazepine-5(6H)-carboxylate]
